# Experiments:
# [1] = target: T1, Mitogen-activated protein kinase kinase kinase kinase 3 (Homo sapiens) (UniProt Q8IVH8); assay: Selectivity interaction (KinomeScan (DiscoverX)) EUB0000595a MAP4K3; settings: at 10 µM
# T1 sequence (whole entry): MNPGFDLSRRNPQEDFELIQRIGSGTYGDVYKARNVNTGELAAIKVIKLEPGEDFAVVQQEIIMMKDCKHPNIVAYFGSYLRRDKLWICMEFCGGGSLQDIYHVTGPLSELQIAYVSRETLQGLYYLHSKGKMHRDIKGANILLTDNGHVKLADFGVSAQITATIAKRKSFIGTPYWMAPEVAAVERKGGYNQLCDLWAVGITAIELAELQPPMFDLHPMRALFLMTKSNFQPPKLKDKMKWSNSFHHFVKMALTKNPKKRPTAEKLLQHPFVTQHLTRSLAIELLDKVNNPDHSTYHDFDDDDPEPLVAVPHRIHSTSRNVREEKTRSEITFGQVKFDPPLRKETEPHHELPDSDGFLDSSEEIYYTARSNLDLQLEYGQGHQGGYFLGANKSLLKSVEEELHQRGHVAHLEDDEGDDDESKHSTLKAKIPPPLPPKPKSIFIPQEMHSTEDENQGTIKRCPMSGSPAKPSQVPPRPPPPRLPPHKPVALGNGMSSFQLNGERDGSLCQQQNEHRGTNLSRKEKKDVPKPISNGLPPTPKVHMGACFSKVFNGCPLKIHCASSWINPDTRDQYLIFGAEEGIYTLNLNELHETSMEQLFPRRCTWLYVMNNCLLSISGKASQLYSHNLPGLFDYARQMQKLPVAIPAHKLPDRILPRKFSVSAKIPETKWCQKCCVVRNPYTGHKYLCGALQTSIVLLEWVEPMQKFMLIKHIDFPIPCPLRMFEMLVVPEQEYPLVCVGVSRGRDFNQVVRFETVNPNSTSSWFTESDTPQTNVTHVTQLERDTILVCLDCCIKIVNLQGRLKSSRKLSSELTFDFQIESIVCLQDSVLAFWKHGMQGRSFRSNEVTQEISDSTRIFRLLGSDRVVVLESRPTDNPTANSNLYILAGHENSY
# [2] = target: T2, Tyrosine-protein kinase Mer (Homo sapiens) (UniProt Q12866); assay: Selectivity interaction (KinomeScan (DiscoverX)) EUB0000618a MERTK; settings: at 10 µM
# T2 sequence (whole entry): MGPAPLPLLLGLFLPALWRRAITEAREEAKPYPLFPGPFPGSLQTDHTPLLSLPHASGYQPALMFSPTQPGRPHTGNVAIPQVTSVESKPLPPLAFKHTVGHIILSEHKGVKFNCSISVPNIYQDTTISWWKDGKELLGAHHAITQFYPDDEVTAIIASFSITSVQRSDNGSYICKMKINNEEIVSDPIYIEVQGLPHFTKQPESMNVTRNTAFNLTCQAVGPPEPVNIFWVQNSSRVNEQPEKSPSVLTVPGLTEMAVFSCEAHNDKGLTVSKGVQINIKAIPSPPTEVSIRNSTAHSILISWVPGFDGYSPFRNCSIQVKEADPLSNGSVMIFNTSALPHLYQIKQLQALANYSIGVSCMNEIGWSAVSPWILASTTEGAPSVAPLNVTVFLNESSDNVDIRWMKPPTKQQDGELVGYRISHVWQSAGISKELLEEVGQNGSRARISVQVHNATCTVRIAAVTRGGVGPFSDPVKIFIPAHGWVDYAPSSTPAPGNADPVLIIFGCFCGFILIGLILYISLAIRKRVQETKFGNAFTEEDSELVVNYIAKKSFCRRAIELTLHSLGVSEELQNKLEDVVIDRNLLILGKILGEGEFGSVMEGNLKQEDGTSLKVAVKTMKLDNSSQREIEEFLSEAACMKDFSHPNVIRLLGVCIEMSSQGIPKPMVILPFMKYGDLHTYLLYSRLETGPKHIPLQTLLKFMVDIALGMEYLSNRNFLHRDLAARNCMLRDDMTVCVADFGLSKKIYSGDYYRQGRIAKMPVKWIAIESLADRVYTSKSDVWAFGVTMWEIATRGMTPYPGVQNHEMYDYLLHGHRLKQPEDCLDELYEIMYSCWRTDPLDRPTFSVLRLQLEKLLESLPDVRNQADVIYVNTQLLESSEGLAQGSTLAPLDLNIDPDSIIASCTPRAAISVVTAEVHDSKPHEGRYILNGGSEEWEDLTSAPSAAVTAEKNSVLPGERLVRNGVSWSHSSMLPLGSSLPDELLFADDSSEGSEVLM
# [3] = target: Non-receptor tyrosine-protein kinase TYK2 (Homo sapiens, UniProt P29597)
# [4] = target: T3, Ephrin type-A receptor 1 (Homo sapiens) (UniProt P21709); assay: Selectivity interaction (KinomeScan (DiscoverX)) EUB0001619a EPHA1; settings: at 1 µM
# T3 sequence (whole entry): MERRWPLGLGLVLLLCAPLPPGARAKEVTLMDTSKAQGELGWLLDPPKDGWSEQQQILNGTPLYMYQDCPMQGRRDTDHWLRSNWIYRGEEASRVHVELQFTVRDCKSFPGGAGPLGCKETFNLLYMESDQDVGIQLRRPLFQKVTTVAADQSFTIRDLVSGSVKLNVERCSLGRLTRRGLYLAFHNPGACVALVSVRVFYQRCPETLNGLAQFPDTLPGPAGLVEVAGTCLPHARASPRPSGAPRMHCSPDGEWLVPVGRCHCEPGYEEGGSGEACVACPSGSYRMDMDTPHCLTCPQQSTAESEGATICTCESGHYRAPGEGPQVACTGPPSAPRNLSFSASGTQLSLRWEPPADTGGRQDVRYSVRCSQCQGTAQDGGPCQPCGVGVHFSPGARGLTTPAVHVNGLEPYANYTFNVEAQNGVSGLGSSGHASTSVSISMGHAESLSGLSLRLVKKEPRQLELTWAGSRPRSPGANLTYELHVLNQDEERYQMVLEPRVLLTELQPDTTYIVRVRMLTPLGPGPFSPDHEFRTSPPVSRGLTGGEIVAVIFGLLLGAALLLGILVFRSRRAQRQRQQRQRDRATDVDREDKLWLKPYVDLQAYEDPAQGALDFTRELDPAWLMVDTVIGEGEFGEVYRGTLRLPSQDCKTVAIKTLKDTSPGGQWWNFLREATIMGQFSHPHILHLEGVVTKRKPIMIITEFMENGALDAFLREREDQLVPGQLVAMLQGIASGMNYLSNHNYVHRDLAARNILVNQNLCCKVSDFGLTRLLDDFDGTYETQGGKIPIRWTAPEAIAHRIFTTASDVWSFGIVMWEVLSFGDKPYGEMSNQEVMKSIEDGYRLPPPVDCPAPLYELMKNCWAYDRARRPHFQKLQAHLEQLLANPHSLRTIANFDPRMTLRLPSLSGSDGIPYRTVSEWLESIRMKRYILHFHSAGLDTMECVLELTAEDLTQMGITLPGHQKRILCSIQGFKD
# [5] = target: Vascular endothelial growth factor receptor 1 (Homo sapiens) (UniProt P17948); assay: Selectivity interaction (SelectScreen profiling (Invitrogen)) EUB0000607a FLT1; settings: at 2 µM
# Chain of Vascular endothelial growth factor receptor 1 (Homo sapiens) (P17948 whole entry): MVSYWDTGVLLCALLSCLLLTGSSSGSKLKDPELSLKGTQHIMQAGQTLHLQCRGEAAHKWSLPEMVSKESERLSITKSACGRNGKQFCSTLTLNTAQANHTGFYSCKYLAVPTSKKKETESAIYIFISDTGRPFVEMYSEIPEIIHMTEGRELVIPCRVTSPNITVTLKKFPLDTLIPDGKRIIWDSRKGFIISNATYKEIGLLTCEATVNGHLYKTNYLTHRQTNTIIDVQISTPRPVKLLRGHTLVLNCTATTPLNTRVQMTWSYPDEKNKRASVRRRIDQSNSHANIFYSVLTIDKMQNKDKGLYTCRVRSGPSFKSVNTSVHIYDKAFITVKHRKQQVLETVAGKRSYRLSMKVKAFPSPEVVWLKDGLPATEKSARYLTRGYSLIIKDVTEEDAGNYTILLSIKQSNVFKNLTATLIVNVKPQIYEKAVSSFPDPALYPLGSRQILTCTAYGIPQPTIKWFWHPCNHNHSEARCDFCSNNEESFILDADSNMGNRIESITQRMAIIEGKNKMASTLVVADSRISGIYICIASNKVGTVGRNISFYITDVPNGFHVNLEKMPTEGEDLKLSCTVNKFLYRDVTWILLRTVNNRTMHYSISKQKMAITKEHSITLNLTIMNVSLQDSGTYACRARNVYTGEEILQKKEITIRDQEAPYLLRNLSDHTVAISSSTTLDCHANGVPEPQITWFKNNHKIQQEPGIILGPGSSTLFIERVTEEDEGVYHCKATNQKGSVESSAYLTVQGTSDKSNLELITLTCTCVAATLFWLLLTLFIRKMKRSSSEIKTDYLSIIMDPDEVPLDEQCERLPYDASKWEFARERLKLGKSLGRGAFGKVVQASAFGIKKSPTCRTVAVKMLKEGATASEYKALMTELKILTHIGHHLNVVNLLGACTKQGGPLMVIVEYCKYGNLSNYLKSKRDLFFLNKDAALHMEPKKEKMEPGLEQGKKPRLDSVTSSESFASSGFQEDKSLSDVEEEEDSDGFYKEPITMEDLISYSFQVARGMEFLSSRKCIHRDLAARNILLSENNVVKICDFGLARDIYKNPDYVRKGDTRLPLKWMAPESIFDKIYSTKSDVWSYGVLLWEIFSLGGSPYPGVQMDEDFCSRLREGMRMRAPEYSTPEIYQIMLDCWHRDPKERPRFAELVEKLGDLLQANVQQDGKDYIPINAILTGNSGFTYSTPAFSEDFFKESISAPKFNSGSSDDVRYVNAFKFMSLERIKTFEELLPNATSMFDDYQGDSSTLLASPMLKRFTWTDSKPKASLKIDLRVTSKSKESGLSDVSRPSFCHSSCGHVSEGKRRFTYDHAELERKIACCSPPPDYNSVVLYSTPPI
# Chain of Non-receptor tyrosine-protein kinase TYK2 (P29597 whole entry): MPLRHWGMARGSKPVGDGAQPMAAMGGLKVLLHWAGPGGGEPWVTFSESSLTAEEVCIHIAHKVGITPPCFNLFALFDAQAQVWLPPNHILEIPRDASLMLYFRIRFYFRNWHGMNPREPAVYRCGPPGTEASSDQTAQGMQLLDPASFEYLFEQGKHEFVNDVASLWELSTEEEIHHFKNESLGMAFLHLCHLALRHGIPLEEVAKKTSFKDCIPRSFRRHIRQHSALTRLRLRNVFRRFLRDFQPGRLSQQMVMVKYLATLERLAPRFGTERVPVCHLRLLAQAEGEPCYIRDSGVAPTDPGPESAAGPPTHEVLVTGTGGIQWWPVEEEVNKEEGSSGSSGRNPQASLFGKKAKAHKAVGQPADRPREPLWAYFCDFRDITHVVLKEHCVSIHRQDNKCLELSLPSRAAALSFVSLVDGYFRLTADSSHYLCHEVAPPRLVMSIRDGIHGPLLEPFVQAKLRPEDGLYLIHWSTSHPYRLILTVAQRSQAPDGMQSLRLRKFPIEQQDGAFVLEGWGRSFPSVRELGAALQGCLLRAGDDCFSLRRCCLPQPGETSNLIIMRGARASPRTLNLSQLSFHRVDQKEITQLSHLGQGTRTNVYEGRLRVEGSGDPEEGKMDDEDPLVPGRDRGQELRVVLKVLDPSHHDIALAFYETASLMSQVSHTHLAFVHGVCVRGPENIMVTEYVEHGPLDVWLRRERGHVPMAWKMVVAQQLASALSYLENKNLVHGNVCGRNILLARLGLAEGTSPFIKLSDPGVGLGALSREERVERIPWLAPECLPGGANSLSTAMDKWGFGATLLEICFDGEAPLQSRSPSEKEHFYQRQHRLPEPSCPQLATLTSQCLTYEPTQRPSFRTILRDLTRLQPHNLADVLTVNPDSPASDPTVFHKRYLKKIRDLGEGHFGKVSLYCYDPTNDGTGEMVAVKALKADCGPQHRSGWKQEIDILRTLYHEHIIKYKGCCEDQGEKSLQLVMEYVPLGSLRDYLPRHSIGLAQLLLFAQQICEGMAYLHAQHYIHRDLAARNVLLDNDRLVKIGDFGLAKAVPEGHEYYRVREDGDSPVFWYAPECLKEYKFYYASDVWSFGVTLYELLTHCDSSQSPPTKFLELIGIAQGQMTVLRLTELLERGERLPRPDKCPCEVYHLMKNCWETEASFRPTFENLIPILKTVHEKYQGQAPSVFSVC
smiles,measurement,setting,value
COCC(=O)NC/C=C/c1ccc2ncnc(Nc3ccc(Oc4ccc(C)nc4)c(C)c3)c2c1 [CP-724714],% of control,[1],80%
O[C@H]1CC[C@H](Nc2ncc3nc(Nc4c(F)cc(F)cc4F)n([C@H]4CCOC4)c3n2)CC1,% of control,[2],17%
CCc1cccc(CC)c1NC(=O)c1nn(C)c2c1CCc1cnc(Nc3ccc(C(=O)NC4CCN(C)CC4)cc3OC(F)(F)F)nc1-2,IC50,[3],> 10 µM
N#Cc1cccc(-c2c[nH]c3ncnc(N4CCOCC4)c23)c1,% of control,[4],100%
CNC(=O)Nc1ccc(-c2nc(N3CC4CCC(C3)O4)c3cnn(C4CCC5(CC4)OCCO5)c3n2)cc1,% of inhibition,[5],8%

# — ChEMBL document CHEMBL5465560, “Selectivity Literature for EUbOPEN Chemogenomic Library” (2024)
